Consider one compound from patent US20100113533A1, “Polymorph II of 4-[4-(Amino)-3- Fluorophenoxy]-N-Methylpyridine-2-Carboxamide” (BAYER SCHERING PHARMA AKTIENGESELLSCHAFT, priority 2006, published 2010).

A short description of the data set: Solubility in water and in organic solvents. In kind it is physicochemical.

Take `CNC(=O)c1cc(Oc2ccc(NC(=O)Nc3ccc(Cl)c(C(F)(F)F)c3)c(F)c2)ccn1` [polymorph II, 4-[4-({[4-chloro-3-(trifluoromethyl)phenyl]carbamoyl}amino)-3-fluorophenoxy]-N-methylpyridine-2-carboxamide]: the “solubility in organic solvents” value (organic solvents) was “high solubility”. For the same compound, the solubility in water entry (water) is “high solubility”.
